Square brackets hold non-standard residues; d marks the D form. Ends that are not written are not given here. pS = N[C@@H](COP(=O)(O)O)C(=O)O
Tested on: Wistar rats
Test: Experimental research on animal ectopic osteogenesis (peptide/collagen sponge implantation)
Type: in vivo
Conditions: for ectopic osteogenesis by CT scan imaging: 0.4 mg peptide on collagen sponge implanted in sacral spine muscles, CT at 3, 6, 8 weeks; for ectopic osteogenesis ability (overall result) / formation of new bone by histological examination (HE staining): 0.4 mg peptide/collagen sponge; for formation of new bone by histological examination (HE staining): eighth week
Method: The scaffold material is collagen sponge, the size of which is 5×5×5 mm^3. Three bone morphogenetic protein-2 active peptides are dissolved into saline solution, and then dropped on the collagen sponge in accordance with the 0.4 mg dose. Meanwhile, equivalent saline solution is dropped on the control pure collagen sponge, and freeze-dried for reserve after complete absorption.
(2) groups: 36 Wistar rats are randomly divided into three experimental groups, namely 0.4 mg bone morphogenetic protein-2 active peptide 1/collagen sponge group, 0.4 mg bone morphogenetic protein-2 active peptide 2/[…] group and 0.4 mg bone morphogenetic protein-2 active peptide 3/collagen sponge group, and the control group is using pure collagen sponge.
The anesthesia of rats is achieved by ketamine intraperitoneal injection. For two experimental groups, 0.4 mg bone morphogenetic protein-2 active peptide 1/collagen sponge and 0.4 mg bone morphogenetic protein-2 active peptide 2/collagen sponge are respectively implanted with 1 cm incision in the sacral spine muscles on the back. For […], pure collagen sponge of the same size is implanted into the gaps along one side of sacral spine muscles. CT radiography inspection of three rats groups is done after implantation in the 3, 6, 8 weeks, and then four rats of each group are killed at each time point. Local tissues of implant materials are sampled, after fixation by formaldehyde and paraffin-embedded sections, and histological observation is done with HE staining.

Substance | ectopic osteogenesis by CT scan imaging | ectopic osteogenesis ability (overall result) | formation of new bone by histological examination (HE staining)
C16H31O—NH—CCCCGGGS^[PO4]KIPKASSVPTELSAISTLYL | significant ectopic osteogenesis | good ectopic osteogenesis ability | significant formation of new bone
CCCCDDDS^[PO4]KIPKASSVPTELSAISTLYL (CCCCDDD[pS]KIPKASSVPTELSAISTLYL; cysteine pairing not given here) | significant ectopic osteogenesis | good ectopic osteogenesis ability | significant formation of new bone
S^[PO4]KIPKASSVPTELSAISTLYLDDD ([pS]KIPKASSVPTELSAISTLYLDDD) | significant ectopic osteogenesis | good ectopic osteogenesis ability | significant formation of new bone
